Assay results as given in article PMC11801377, “A uniquely efficacious type of CFTR corrector with complementary mode of action” (Science Advances, 2024).
Blank lines part the entries; values can stand above or below the compound they belong to.

Key:
F508del-CFTR [1] = molecular target: T1, F508del-CFTR (Homo sapiens, UniProt P13569, DEL508-508); assay: Pharmacochaperone trafficking assay: F508del-CFTR cell surface expression in U2OS cells; format: cell-based; parameters: host or cells: U2OS (PathHunter U2OS-F508del-CFTR MEM-EA)
Procedure: This assay was adapted from the DiscoverX PathHunter pharmacochaperone trafficking assay, which is based on the enzyme fragment complementation technique. Briefly, the U2OS-F508del-CFTR cell line (DiscoveRx, #93-0987C3) is engineered to coexpress (i) human F508del-CFTR tagged with a Prolink (PK = short β-galactosidase fragment) and (ii) the remainder of the β-galactosidase enzyme [enzyme acceptor (EA)] localized to the PM. Incubation with compounds that increase trafficking of PK-tagged F508del-CFTR to the PM will lead to complementation of the EA fragment to form a functional β-galactosidase enzyme, which is quantified by a chemiluminescence reaction reporting cell surface CFTR expression. The same principle applies to the counterscreen using U2OS-ADRB2(W158A) cells (DiscoveRx, #93-0986C3). Freshly thawed U2OS-F508del-CFTR and U2OS-ADRB2(W158A) were seeded at 3500 or 5000 cells per well, respectively, in 20 μl per well of cell assay medium [McCoy (Life Technologies), 10% FBS, penicillin (100 U/ml), and streptomycin ([…])] in a 384 white low-volume plate (Corning). Predilutions of compounds in dimethyl sulfoxide (DMSO) were prepared in a 384-well polypropylene plate using an automated liquid-handling system. Dilution series were then transferred into cell assay medium in a polypropylene 384-well plate (Greiner) to obtain 5× concentrated aqueous working stocks. Five hours after cell seeding, 5× working stocks (5 μl per well) were added to the cells (20 μl per well) for an incubation overnight at 37°C. The next day, after 2 hours at room temperature, the cell plates were incubated with 10 μl of Flash detection reagent (#93-0247, DiscoverX) for 30 min, and chemiluminescence signals were detected with a microplate reader (Synergy MX, Agilent BioTek). Chemiluminescence data were normalized to the signal of basal vehicle-treated cells, and mean chemiluminescence values were converted to concentration-response curves for determination of EC50 and Emax values (GraphPad Prism).
Both above described cell lines [U2OS-F508del-CFTR and U2OS-ADRB2(W158A)] and assays were also used in the high-throughput screening campaign in which compounds were tested at 10 μM concentration with LUM (3 μM) or propranolol (100 nM) serving as 100% controls.

[2] = molecular target: T2, MSD2-NBD2 fragment (M837-L1480-CFTR) (Homo sapiens, UniProt P13569); assay: Truncated CFTR construct levels (immunoblotting), MSD2-NBD2 fragment; format: cell-based; conditions: HEK-TREx cells, 40 hours; C4a 10 μM
T2 construct: expressed in transfected cells; host or cells: T-REx HEK293
Excerpt: (§1) The human CFTR expressing HEK cell pools with the mutations described below were generated by integrase-mediated homologous recombination of the CFTR sequence into the T-REx HEK293 background (Thermo Fisher Scientific). This expression system allows the tetracycline-inducible expression of genes of interest from one defined insertion site. Parental T-REx-HEK293 cells were cultivated in growth medium: Dulbecco’s modified Eagle’s medium + GlutaMAX-I (#31966, Life Technologies), 10% dialyzed FBS (Gibco, #26400), penicillin (100 U/ml), streptomycin (100 μg/ml), hygromycin B (0.1 mg/ml; Life Technologies), blasticidin (5 μg/ml; Invitrogen, #R210-01), and 0.1 mM nonessential amino acid solution (Invitrogen, #11140-035). Recombinant T-REx-HEK-CFTR cells were generated by lipofectamine transfection (Life Technologies) of plasmids containing mutated versions of CFTR (RefSeq NM_000492) and then cultivated in selection medium [growth medium containing Geneticin (1 mg/ml) (Invitrogen, #10131-027) instead of hygromycin]. The plasmid constructs were synthetized by GENEART (Thermo Fisher Scientific) and designed with the WT CFTR intron 5 to 6 (880 nucleotides) to prevent leaky expression issues during the cloning process in bacteria. […]

CFTR = test system: CFTR; parameters: method as in earlier work; conditions: ref [27] (GLPG-2737); ref [21], [26], [27] (ELX); cited from earlier work
F508del-CFTR [3] = molecular target: T1, F508del-CFTR; assay: Halide-sensitive YFP quenching assay in U2OS-F508del-CFTR-YFP cells; format: cell-based; parameters: host or cells: U2OS (PathHunter U2OS-F508del-CFTR MEM-EA)
Procedure: U2OS-F508del-CFTR cells expressing Topaz-YFP F46L/H148Q/I152L were seeded at 20,000 cells per well into 384-well black clear-bottom plates in 40 μl per well growth medium (Mc COY’s 5A, Gibco, 10% FBS, penicillin/streptomycin), containing the various CFTR correctors at the indicated concentrations. The cells were coincubated with the compounds for 24 hours (37°C, 5% CO2). The next day, plates were washed twice with PBS^+ (55 μl per well; PBS containing 0.9 mM Ca^2+ and 0.5 mM Mg^2+). PBS^+ was fully removed, and cells were supplemented with 15 μl PBS^+. Then, 5 μl of 4× concentrated stocks of IVA or vehicle in dilution buffer [PBS^+, 0.1 μM forskolin, and 0.2% bovine serum albumin (fatty acid free) (pH 7.4)] were added and incubated for 30 min in the dark. For experiments with I-172 (Sigma- Aldrich), the inhibitor was added to the mix with either IVA or vehicle to reach a final concentration in cells of 20 μM. Then, plates were transferred to the FLIPR Tetra (fluorescence imaging plate reader; Molecular Devices: excitation: 470 to 495 nm; emission: 526 to 585 nm), baseline fluorescence reading of the YFP signal was performed for 6 s (10 × 0.6 s intervals) after which 25 μl of iodide buffer [137 mM NaI, 2.7 mM KCl, 1.5 mM KH2PO4, 8.1 mM Na2HPO4, 1 mM CaCl2, and 0.5 mM MgCl2 (pH 7.4)] was added, and fluorescence reading was continued for 70 s (50 × 0.6 s intervals; 20 x 2 s intervals) to assess YFP quenching through CFTR-mediated iodide influx. For analysis, fluorescence traces were aligned and normalized at the last time point before iodide addition (normalized fluorescence = 1). Normalized fluorescence values obtained 20 s after the beginning of the assay were used to assess the degree of YFP quenching, i.e., CFTR function (see fig. S1J). […] Then, plates were read and analyzed as above. […] Then, plates were transferred to the FLIPR Tetra and read and analyzed as above.

F508del.L15W-CFTR = assay: Site-directed mutagenesis immunoblotting, HEK-TREx, F508del.L15W-CFTR; format: cell-based, human; conditions: 40 h, 2 μM
Excerpt: as §1

F508del.K14A-CFTR = assay: Site-directed mutagenesis immunoblotting, HEK-TREx, F508del.K14A-CFTR; format: cell-based, human; conditions: 40 h, 2 μM
Excerpt: as §1

[4] = U2OS cells, overnight treatment

T1 sequence (P13569 with tags, fused parts or gaps DEL508-508): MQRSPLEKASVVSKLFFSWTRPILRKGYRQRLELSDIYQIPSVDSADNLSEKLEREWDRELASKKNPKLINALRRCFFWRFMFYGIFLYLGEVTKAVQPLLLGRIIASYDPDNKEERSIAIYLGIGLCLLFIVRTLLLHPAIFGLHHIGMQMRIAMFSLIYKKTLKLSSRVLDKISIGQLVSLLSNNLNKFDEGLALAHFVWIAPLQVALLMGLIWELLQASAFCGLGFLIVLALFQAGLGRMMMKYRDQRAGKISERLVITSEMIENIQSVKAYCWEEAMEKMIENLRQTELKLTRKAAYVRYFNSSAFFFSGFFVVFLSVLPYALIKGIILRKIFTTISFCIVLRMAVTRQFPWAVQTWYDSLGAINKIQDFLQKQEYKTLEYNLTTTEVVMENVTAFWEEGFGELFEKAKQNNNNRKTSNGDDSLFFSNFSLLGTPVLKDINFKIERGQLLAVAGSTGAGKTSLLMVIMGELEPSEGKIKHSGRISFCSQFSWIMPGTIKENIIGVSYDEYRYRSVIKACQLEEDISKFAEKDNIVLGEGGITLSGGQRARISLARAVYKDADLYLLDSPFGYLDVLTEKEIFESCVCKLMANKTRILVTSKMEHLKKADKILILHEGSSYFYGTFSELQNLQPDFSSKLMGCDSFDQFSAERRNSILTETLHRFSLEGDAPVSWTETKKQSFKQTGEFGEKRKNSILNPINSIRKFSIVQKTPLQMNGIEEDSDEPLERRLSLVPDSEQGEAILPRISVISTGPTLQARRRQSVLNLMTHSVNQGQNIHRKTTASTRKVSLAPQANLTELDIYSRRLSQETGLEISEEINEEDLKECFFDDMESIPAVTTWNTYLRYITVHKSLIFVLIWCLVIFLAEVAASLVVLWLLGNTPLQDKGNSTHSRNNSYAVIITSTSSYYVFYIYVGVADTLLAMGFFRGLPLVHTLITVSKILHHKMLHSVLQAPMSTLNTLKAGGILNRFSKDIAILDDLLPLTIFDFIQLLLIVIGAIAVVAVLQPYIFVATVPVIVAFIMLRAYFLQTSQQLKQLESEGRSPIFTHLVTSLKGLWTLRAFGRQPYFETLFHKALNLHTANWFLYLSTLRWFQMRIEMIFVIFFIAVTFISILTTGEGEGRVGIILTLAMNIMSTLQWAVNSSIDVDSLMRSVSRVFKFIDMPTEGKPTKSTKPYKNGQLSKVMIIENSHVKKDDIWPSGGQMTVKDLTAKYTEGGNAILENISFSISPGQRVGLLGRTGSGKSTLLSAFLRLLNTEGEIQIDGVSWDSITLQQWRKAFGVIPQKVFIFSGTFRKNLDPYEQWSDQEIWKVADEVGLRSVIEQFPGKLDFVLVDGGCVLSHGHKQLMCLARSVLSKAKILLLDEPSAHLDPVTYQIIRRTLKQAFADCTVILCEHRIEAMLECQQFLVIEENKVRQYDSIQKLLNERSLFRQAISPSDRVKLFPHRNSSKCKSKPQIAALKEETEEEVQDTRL
T2 sequence (P13569 837-1480): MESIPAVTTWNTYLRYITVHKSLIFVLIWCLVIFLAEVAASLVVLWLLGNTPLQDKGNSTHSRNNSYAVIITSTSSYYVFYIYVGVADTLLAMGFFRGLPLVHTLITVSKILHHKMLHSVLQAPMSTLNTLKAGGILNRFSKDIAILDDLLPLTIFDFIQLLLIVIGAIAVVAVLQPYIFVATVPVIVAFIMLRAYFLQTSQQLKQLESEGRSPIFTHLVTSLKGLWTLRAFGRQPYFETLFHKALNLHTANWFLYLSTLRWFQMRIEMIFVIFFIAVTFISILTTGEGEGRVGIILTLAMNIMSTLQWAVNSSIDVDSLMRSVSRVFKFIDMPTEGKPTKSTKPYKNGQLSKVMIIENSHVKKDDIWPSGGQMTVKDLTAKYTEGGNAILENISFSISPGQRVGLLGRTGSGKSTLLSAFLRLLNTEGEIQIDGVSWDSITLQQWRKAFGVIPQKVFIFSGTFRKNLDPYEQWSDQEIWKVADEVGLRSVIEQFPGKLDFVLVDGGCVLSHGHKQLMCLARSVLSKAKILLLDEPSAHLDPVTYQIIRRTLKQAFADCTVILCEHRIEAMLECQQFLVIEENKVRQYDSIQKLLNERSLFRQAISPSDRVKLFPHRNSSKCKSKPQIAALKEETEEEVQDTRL

SMILES: C[C@@H]1CN(c2nc(-n3ccc(OCCC4(C(F)(F)F)CC4)n3)ccc2C(=O)NS(=O)(=O)c2ccccc2)C(C)(C)C1 [BAM, bamocaftor]
- maximal F508del-CFTR surface expression (Emax) (F508del-CFTR [1]; [4]): seven- to ninefold

SMILES: COC1CCN(C2CCN(c3cc(C(=O)NS(=O)(=O)N(C)C)nc4c3c(C3CCC3)nn4-c3ccc(F)cc3)CC2)CC1 [GLPG-2737]
- acute effect on CFTR currents (CFTR): acute inhibitory

SMILES: CC(C)CC1C(=O)N(C)CC(=O)NC(Cc2ccccc2)COc2ccccc2C(=O)NC(C(=O)NCCc2ccccc2)CC(=O)N1C (stereo not drawn) [IDOR-0]
- EC50 (F508del-CFTR [1]; [4]): 1.6 µM
- maximal F508del-CFTR surface expression (Emax) (F508del-CFTR [1]; [4]): 3 fold over baseline

SMILES: COc1nc(C)cc2c1C(=O)NC(C(=O)NCCc1cccc(N=[N+]=[N-])c1)CC(=O)N(C)C(CC(C)C)C(=O)N(C)C(CC1CCCC1)C(=O)NC(Cc1ccccc1)CO2 (stereo not drawn) [IDOR-6A]
- correction by macrocycles versus [LUM + BAM] (F508del.L15W-CFTR): little difference
- weaker correction by macrocycles as compared to [LUM + BAM] (F508del.K14A-CFTR): two- to fourfold

Second part, led by results:

- maximal F508del-CFTR surface expression (Emax) (F508del-CFTR [1]; [4]): four- to fivefold
- additivity in F508del-CFTR surface expression (F508del-CFTR [1]; applied on top of / titrated onto IDOR-4): full additivity or even synergy
SMILES: COc1ccc(Cl)cc1Nc1nc(-c2sc(NC(=O)c3ccccc3)nc2C)cs1 [C4a, corrector 4a]
- expression of the MSD2-NBD2 fragment [2]: increased the expression of its glycosylated and nonglycosylated forms

- maximal F508del-CFTR surface expression (Emax) (F508del-CFTR [1]; [4]): four- to fivefold
SMILES: O=C(O)c1ccc([C@H]2C[C@@H](NC(=O)C3(c4ccc5c(c4)OC(F)(F)O5)CC3)c3ccc(OC(F)F)cc3O2)cc1 [GAL, galicaftor]

- effect on corrector-induced YFP quenching responses (F508del-CFTR [3]; I-172 20 μM): blocked
SMILES: O=C(O)c1ccc(/C=C2\SC(=S)N(c3cccc(C(F)(F)F)c3)C2=O)cc1 [I-172]

- EC80 of potentiator (F508del-CFTR [3]; concentration used as ~EC80): ~0.002 µM
SMILES: CC(C)(C)c1cc(C(C)(C)C)c(NC(=O)c2c[nH]c3ccccc3c2=O)cc1O [IVA, ivacaftor]
